The source made the active and inactive calls. The rule behind the calls is not given here.
Experiments:
[1] = target: NAD-dependent protein deacetylase sirtuin-2 (Homo sapiens) (UniProt Q8IXJ6); test: Inhibition of human Sirtuin2 at 10 uM relative to control
[2] = target: Histone-lysine N-methyltransferase EZH2 (Homo sapiens) (UniProt Q15910); test: Inhibition of EZH2 in HUVEC assessed as reduction of EZH2 transcriptional activity by genome-wide RNA-seq and ChlP-seq analysis; type: cell-based
4T1.2 [3] = test: Antitumor activity against mouse 4T1.2 cells implanted in BALB/c mouse assessed as effect on tumor size at 25 mg/kg/day for 10 days; type: functional, organism-based
[4] = target: Alpha-1B adrenergic receptor (Rattus norvegicus) (UniProt P15823); test: Inhibition of rat adrenergic alpha1B receptor at 10 uM relative to control
Sequence of Alpha-1B adrenergic receptor (Rattus norvegicus) (P15823 whole entry): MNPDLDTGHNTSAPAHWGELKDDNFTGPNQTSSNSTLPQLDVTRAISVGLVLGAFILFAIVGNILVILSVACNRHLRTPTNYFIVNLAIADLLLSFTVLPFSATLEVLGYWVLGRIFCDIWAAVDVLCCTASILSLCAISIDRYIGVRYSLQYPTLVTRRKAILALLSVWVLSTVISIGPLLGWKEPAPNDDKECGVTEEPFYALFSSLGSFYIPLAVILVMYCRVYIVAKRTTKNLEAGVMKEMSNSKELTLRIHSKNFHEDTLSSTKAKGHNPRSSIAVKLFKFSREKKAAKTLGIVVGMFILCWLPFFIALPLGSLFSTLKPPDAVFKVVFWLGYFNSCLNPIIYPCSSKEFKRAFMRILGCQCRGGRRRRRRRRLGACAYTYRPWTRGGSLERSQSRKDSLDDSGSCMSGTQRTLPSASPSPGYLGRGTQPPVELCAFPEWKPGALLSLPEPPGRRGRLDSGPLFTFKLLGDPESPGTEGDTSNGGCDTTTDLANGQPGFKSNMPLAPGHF

[5] = target: Transcriptional repressor CTCF (Homo sapiens) (UniProt P49711); test: Inhibition of CTCF in HUVEC assessed as reduction of CTCF transcriptional activity by genome-wide RNA-seq and ChlP-seq analysis; type: cell-based
[6] = target: Glucocorticoid receptor (Homo sapiens) (UniProt P04150); test: Inhibition of human glucocorticoid receptor at 10 uM relative to control
[7] = target: Sigma non-opioid intracellular receptor 1 (Homo sapiens) (UniProt Q99720); test: Inhibition of human sigma1 receptor at 10 uM relative to control
Sequence of Sigma non-opioid intracellular receptor 1 (Homo sapiens) (Q99720 whole entry): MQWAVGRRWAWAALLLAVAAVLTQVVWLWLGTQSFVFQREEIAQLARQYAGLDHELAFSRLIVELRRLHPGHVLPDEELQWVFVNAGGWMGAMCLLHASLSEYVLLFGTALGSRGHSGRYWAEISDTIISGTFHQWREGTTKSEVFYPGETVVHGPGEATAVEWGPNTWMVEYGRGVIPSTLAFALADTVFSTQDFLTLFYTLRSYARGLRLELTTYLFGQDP

Danio rerio [8] = test: Induction of arterial and venous genes dys-regulation in zebrafish larvae harboring fli1 a:eGFP,-6.5kdrl:mCherry assessed as effect on hey2 gene expression at 1.5 uM dosed starting from 16 hpf and measured at 24 and 48 hpf by qRT-PCR analysis; type: functional, organism-based
[9] = target: T1, Transcription factor SOX-18 (Mus musculus) (UniProt P43680); test: Competitive binding affinity to full-length mouse SOX18 expressed in Sf9 cells assessed as reduction in SOX1 8- DNA binding using FAM-labelled Prox1 -DNA element at 1 to 1000 uM incubated for 5 mins in dark at room temperature, 10 mins at 37 degC and 30 mins at room temperature by fluorescence polarization assay
T1 sequence (whole entry): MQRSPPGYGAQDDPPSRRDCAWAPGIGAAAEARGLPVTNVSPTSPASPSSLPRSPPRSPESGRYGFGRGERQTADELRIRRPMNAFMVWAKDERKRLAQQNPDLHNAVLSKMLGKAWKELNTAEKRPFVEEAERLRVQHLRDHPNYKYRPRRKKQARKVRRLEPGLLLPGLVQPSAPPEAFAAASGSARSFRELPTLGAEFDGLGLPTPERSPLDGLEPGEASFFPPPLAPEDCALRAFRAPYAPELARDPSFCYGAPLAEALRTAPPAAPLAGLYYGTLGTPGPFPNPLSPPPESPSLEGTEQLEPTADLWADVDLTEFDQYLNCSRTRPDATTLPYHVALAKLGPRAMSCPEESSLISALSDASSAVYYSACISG

[10] = target: Alpha-2A adrenergic receptor (Homo sapiens) (UniProt P08913); test: Inhibition of human adrenergic alpha2A receptor at 10 uM relative to control
[11] = target: Histamine H1 receptor (Homo sapiens) (UniProt P35367); test: Inhibition of human histamine H1 receptor at 10 uM relative to control
4T1.2 [12] = test: Antitumor activity against mouse 4T1.2 cells implanted in BALB/c mouse assessed as reduction in mean number of lung metastases at 25 mg/kg/day for 10 days measured at day 28 after tumor inoculation relative to control; type: functional; design: scale not given: the % may be the effect or the level left
[13] = target: Muscarinic acetylcholine receptor M3 (Homo sapiens) (UniProt P20309); test: Inhibition of human muscarinic M3 receptor at 10 uM relative to control
4T1.2 [14] = test: Antitumor activity against mouse 4T1.2 cells implanted in BALB/c mouse assessed as median disease latency time at 50 mg/kg/day for 10 days (Rvb =40 days); type: functional
[15] = target: Transcription factor SOX-9 (Homo sapiens) (UniProt P48436); test: Inhibition of SOX9 (unknown origin) expressed in African green monkey COS7 cells assessed as reduction in SOX9 transcriptional activity at; type: cell-based
Danio rerio [16] = test: Induction of arterial and venous genes dys-regulation in zebrafish larvae harboring fli1 a:eGFP,-6.5kdrl:mCherry assessed as effect on mCherry gene expression at 1.5 uM dosed starting from 16 hpf and measured at 24 and 48 hpf by qRT-PCR analysis; type: functional, organism-based
[17] = target: Sodium-dependent noradrenaline transporter (Homo sapiens) (UniProt P23975); test: Inhibition of human NET at 10 uM relative to control
Sequence of Sodium-dependent noradrenaline transporter (Homo sapiens) (P23975 whole entry): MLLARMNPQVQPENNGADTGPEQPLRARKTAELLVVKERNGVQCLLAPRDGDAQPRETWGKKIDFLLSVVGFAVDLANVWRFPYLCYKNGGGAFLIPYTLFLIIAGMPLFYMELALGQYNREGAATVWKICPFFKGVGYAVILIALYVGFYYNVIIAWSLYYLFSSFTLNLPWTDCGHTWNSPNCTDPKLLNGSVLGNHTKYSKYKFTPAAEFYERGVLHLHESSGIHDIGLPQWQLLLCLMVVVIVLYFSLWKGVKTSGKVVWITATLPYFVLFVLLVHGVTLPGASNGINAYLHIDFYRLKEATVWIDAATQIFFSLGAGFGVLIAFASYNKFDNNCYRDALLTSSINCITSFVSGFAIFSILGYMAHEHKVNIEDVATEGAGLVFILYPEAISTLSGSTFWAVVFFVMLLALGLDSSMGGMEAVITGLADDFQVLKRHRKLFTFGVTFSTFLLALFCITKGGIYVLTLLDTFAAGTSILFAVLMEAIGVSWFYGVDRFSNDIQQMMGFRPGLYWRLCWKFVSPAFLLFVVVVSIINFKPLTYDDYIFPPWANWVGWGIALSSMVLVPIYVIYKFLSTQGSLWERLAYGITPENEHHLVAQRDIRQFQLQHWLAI

[18] = target: Transcription factor SOX-18 (Homo sapiens, UniProt P35713); test: Inhibition of SOX18 in HUVEC assessed as reduction of SOX18-ESR1 interactions incubated for 45 mins by Alpha-screen assay; type: cell-based
Sequence of Transcription factor SOX-18 (P35713 whole entry): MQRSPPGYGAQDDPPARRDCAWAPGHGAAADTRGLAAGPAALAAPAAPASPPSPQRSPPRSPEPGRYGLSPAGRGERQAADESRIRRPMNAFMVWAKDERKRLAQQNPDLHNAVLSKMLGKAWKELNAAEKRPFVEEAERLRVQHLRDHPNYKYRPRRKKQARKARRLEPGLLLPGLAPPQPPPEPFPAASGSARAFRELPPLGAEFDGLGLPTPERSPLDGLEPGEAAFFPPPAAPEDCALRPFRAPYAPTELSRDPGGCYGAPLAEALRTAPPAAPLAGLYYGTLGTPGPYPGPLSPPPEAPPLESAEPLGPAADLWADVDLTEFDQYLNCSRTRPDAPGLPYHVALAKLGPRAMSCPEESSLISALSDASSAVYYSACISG

[19] = Plasma concentration in BALB/c mouse xenografted with mouse 4T1.2 cells at 25 mg/kg/day for 10 days measured at day 7; type: ADME, organism-based
[20] = target: Acetylcholine receptor subunit alpha (Homo sapiens) (UniProt P02708); test: Inhibition of human nAChR alpha1 channel at 10 uM relative to control
[21] = target: Alpha-1A adrenergic receptor (Rattus norvegicus) (UniProt P43140); test: Inhibition of rat adrenergic alpha1A receptor at 10 uM relative to control
Sequence of Alpha-1A adrenergic receptor (Rattus norvegicus) (P43140 whole entry): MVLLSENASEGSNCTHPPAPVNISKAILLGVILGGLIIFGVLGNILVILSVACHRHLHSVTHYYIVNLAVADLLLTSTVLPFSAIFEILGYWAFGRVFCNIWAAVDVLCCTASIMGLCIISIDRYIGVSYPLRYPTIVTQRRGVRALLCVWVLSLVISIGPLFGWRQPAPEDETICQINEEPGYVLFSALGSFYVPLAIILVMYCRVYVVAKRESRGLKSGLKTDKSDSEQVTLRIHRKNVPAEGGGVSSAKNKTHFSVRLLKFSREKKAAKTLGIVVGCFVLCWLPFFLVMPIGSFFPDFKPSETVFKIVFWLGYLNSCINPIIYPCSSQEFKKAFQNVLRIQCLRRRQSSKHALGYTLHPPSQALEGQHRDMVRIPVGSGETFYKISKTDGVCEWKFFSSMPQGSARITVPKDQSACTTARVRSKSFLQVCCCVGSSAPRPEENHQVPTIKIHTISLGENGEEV

Danio rerio [22] = test: Induction of arterial and venous genes dys-regulation in zebrafish larvae harboring fli1 a:eGFP,-6.5kdrl:mCherry assessed as effect on Ilt4 gene expression at 1.5 uM dosed starting from 16 hpf and measured at 24 and 48 hpf by qRT-PCR analysis; type: functional, organism-based
4T1.2 [23] = test: Inhibition of tumor induced vascular response in mouse 4T1.2 cells implanted BALB/c mouse assessed as reduction in number of endothelial cells in tumor region at 25 mg/kg/day for 10 days by ERG/EMCN-detection based immunofluorescent staining relative to control; type: functional; conditions: 4T1.2, 240 h
[24] = target: Endothelial transcription factor GATA-2 (Homo sapiens) (UniProt P23769); test: Inhibition of GATA2 in HUVEC assessed as reduction of GATA2 transcriptional activity by genome-wide RNA-seq and ChlP-seq analysis; type: cell-based
[25] = Plasma concentration in BALB/c mouse xenografted with mouse 4T1.2 cells at 25 mg/kg/day for 10 days measured at day 12; type: ADME, organism-based
[26] = target: Beta-2 adrenergic receptor (Homo sapiens) (UniProt P07550); test: Inhibition of human adrenergic beta2 receptor at 10 uM relative to control
Sequence of Beta-2 adrenergic receptor (Homo sapiens) (P07550 whole entry, looked up): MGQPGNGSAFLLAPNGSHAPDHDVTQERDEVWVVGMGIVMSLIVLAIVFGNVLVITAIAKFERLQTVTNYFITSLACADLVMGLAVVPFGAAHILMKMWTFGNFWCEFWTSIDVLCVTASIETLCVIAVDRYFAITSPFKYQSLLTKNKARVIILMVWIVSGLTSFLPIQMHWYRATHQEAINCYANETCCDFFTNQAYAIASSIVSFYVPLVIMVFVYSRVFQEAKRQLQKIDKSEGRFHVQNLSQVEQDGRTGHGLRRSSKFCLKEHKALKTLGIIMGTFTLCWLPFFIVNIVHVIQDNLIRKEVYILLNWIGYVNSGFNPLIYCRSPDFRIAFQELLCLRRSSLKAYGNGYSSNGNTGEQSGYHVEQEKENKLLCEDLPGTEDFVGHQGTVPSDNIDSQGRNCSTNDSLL

[27] = target: Cannabinoid receptor 1 (Homo sapiens) (UniProt P21554); test: Inhibition of human CB1 receptor at 10 uM relative to control
Sequence of Cannabinoid receptor 1 (Homo sapiens) (P21554 whole entry): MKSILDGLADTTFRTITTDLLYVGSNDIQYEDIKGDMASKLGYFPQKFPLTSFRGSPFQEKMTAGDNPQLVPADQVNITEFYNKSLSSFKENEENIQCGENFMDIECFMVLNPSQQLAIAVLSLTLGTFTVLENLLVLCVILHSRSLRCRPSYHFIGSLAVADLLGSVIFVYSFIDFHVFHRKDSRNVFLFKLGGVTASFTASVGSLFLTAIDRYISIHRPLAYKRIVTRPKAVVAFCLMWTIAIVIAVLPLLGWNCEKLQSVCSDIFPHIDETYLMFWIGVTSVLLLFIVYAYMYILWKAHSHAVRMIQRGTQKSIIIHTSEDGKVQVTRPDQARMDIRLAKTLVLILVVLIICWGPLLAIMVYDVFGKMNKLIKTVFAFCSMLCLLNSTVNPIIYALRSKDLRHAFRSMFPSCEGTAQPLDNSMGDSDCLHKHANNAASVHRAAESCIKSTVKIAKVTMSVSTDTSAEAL

[28] = target: Myc proto-oncogene protein (Homo sapiens) (UniProt P01106); test: Inhibition of c-MYC in HUVEC assessed as reduction of c-MYC transcriptional activity by genome-wide RNA-seq and ChlP-seq analysis; type: cell-based
hERG (KCNH2) = hERG (KCNH2) (Homo sapiens, UniProt Q12809); test: Inhibition of human ERG at 10 uM relative to control
Sequence of hERG (KCNH2) (Q12809 whole entry): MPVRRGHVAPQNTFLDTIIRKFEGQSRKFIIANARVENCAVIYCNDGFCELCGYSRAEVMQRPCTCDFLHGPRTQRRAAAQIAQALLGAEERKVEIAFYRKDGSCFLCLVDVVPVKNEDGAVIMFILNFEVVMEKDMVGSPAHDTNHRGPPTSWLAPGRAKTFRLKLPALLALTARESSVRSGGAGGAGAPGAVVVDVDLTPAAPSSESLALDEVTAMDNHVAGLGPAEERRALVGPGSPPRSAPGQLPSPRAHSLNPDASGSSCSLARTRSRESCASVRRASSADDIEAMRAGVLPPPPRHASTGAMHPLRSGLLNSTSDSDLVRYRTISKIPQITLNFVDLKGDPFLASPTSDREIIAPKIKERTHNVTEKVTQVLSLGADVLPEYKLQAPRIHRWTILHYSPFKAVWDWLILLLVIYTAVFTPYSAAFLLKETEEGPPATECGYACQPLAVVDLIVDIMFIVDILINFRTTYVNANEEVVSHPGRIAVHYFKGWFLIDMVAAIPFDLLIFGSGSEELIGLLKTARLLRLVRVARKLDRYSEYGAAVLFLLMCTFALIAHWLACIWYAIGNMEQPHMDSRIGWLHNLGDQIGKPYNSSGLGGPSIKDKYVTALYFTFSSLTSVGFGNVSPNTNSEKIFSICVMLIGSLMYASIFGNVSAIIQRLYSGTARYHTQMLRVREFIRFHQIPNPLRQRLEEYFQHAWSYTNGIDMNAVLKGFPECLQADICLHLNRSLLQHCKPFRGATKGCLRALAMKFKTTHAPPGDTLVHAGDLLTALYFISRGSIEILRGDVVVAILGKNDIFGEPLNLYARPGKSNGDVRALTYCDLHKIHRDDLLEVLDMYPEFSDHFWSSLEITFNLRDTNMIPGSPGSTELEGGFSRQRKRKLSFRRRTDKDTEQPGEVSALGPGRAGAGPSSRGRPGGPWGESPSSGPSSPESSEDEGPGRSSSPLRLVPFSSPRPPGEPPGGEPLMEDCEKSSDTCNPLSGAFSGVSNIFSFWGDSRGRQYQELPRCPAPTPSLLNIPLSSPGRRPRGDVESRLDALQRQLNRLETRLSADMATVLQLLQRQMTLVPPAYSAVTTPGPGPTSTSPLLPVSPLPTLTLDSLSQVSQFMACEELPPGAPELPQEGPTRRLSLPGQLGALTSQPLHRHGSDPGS

[29] = target: GABA-A receptor; anion channel (Rattus norvegicus) (UniProt O09028+P15431+P18506+P18508+P19969+P20236+P23574+P23576+P28471+P28473+P30191+P62813+P63079+P63138+Q91ZM7+Q9ES14); test: Inhibition of rat GABAA channel flunitrazepam binding site at 10 uM relative to control; type: protein-complex assay

Sequence of Histone-lysine N-methyltransferase EZH2 (Homo sapiens) (Q15910 whole entry, looked up): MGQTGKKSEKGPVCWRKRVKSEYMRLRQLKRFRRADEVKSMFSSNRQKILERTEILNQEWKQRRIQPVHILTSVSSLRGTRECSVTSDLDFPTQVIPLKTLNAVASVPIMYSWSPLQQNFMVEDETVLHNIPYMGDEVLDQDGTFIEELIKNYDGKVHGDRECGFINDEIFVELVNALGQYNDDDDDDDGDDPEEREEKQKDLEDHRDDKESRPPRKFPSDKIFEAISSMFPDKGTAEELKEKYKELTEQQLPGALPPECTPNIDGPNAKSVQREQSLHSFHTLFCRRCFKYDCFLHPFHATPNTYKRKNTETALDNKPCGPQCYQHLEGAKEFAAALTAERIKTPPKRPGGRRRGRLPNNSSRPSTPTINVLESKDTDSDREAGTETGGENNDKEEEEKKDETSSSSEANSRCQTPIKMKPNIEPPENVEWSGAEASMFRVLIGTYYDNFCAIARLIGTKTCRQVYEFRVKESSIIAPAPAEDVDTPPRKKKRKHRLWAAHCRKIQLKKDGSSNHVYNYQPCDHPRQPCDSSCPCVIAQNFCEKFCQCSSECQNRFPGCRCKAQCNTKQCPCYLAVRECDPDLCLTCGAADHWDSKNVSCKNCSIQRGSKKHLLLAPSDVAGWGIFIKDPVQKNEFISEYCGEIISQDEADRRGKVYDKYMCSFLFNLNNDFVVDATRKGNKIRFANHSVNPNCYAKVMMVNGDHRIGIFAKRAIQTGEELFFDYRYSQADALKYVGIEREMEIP

inhibition [1]: -5.2%
inhibition [2]: inactive
inhibition [4]: -1%
inhibition [5]: inactive
inhibition [6]: 12%
inhibition [7]: -6%
Activity [9]: Active
inhibition [10]: 0%
inhibition [11]: 2%
inhibition [13]: 8%
inhibition [15]: inactive
inhibition [17]: 34%
IC50 [18]: Not Active
concentration at 240 h [19]: 38300 ng/mL
inhibition [20]: -4%
inhibition [21]: 0%
inhibition [24]: inactive
concentration at 240 h [25]: 55200 ng/mL
inhibition [26]: 2%
inhibition [27]: 3%
inhibition [28]: inactive
inhibition [29]: -6%
Compound: O=C(O)c1c(O)cccc1CCc1ccc2ccccc2c1
Activity (4T1.2 [3]): inactive
Activity (Danio rerio [8]): Active
Activity (4T1.2 [12]): 67%
Time (4T1.2 [14]): 73 days
Activity (Danio rerio [16]): Active
Activity (Danio rerio [22]): Active
inhibition in vivo at 25 mg/kg/day (4T1.2 [23]): 48%
inhibition at 10 µM (hERG (KCNH2)): -14%
